# Values of other authors as cited in patent US6365170B1, “Use of a disinfectant for living fish” (USF Filtration & Separations Spa-Div. Perdomini, priority 1998, dated 2002).
# System: salmon louse (Lepeophtheirus Salmonis)
# Conditions: hydrogen peroxide around 1.5 g/l for longer than 20 minutes
smiles,measurement,value
OO [hydrogen peroxide],success percentage,~100%
